Like-named read-outs stand apart in the source and are kept apart here.
Key:
[1] = tested on: carrageenan-λ induced pleurisy; experiment: carrageenan-λ induced lung (pleural cavity) inflammation; type: in vivo, CD1 male mice; conditions: for number of neutrophils relative to negative control group (set at 100%): exudate 4 h after
Text: Treatment of lung inflammation. Three compounds, 3β,16α-dihydroxy-17-oxoandrostane, 3α,16β,17β-trihydroxyandrostane and 3α,16α,17α-trihydroxyandrostane were used to treat inflammation in mice essentially as described (D. Auci et al., Ann. New York Acad. Sci. 1051:730-742 2005). Five to 8 week old CD1 male mice (Charles River, Calco, Italy) were used for the study. The animals were housed in a controlled environment and provided with standard rodent chow and water. Animal care was in compliance with applicable regulations on protection of animals. Mice were allocated into one of the following groups: (1) mice treated with 2% carrageenan-k in saline (carrageenan-λ treated control group), (2) mice treated with 0.1 mg, 0.01 mg or 0.001 mg 3β,16α-dihydroxy-17-oxoandrostane by subcutaneous (s.c.) injection 24 h and 1 h before carrageenan-λ administration, (3) mice treated with 0.1 mg, 0.01 mg or 0.001 mg of 3α,16α,17α-trihydroxyandrostane by s.c. injection 24 and 1 h before carrageenan; (4) mice treated with 0.1 mg, 0.01 mg or 0.001 mg […],16β,17β-trihydroxyandrostane by s.c. injection 24 h and 1 h before carrageenan-λ administration; (5) mice treated with vehicle (0.1% carboxymethylcellulose, 0.9% saline, 2% tween 80, 0.05% phenol) s.c. 24 h and 1 h before carrageenan-λ administration; (6) mice treated with rabbit anti-mouse polyclonal anti-TNF-α antibody (200 μg) given as an intraperitoneal bolus 24 h and 1 h before carrageenan-λ administration (positive control group); and (7) sham-operated mice that were not treated with carrageenan-λ. Each group consisted of 10 mice. All treatments were given in a final volume of 100 μL. Lung (pleural cavity) inflammation was induced as follows. The mice were anaesthetised with isoflurane and a skin incision was made at the level of the left sixth intercostal space. The underlying muscle was dissected and either 0.1 mL saline (control) or 0.1 mL saline containing 2% λ-carrageenan was injected into the pleural cavity. The carrageenan-λ is a potent inducer of inflammation, which is manifested in this protocol by accumulation of fluid and neutrophils in the pleural cavity. The incision was closed with a suture and the animals were allowed to recover.
At 4 h after the injection of carrageenan-λ, the animals were euthanized by exposure to CO2. The chest was carefully opened and the pleural cavity rinsed with 1 mL of saline solution containing heparin (5 U/mL) and indomethacin (10 μg/mL). The exudate and washing solution were removed by aspiration and the total volume measured. Any exudate contaminated with blood was discarded. The amount of exudate was calculated by subtracting the injected 1 mL volume from the total pleural cavity volume that was recovered. The neutrophils in the exudate were suspended in phosphate-buffer saline and counted with an optical microscope in a Burker's chamber after Trypan Blue staining. The results were analysed by one-way ANOVA followed by a Bonferroni post-hoc test for multiple comparisons. A p-value less than 0.05 was considered significant. For statistical analysis each group was compared to the control group of mice that were challenged with carrageenan-k and received no other treatment.
The table below describes the number of neutrophils from the treated animal groups relative to untreated control animals that were exposed to carrageenan-λ, but not treated with anything else (negative control group). The neutrophil number for the negative control group was set at 100% and other groups were compared to this.

[2] = tested on: lethal amount of bacterial lipopolysaccharide (LPS); experiment: lethal shock protocol; type: in vivo, mice; conditions: second assay; oral gavage 24 h before and 1 h after LPS
Experimental: Treatment of lethal inflammation/shock. Two compounds, 16α-bromoepiandrosterone (3β-hydroxy-16α-bromoandrostane-17-one) and 3β,16α-dihydroxy-17-oxoandrostane, were used in a lethal shock protocol. In one protocol, 3 mg of 16α-bromoepiandrosterone was administered to one group of animals by oral gavage, while another group received 3 mg of 16α-bromoepiandrosterone by subcutaneous injection. A group of control animals received a placebo control. In this protocol, the 16α-bromoepiandrosterone was administered to mice at 24 hours before and at 1 hour after administration of a lethal amount of bacterial lipopolysaccharide (LPS). By the end of the observation period, 72 hours after LPS administration, none of the vehicle treated placebo control animals had survived, while 65% of animals that received 16α-bromoepiandrosterone by oral administration survived. 50% of the animals that received 16α-bromoepiandrosterone by subcutaneous injection survived. Animals that survived for 72 hours all recovered from the LPS exposure.
In a second assay, 16α-bromoepiandrosterone or 3β,16α-dihydroxy-17-oxoandrostane was administered to mice by oral gavage at 24 hours before and 1 hour after administration of a lethal amount of LPS. A vehicle treated group of animals was used as the placebo control.

[3] = tested on: human whole blood; experiment: γ-interferon production in human whole blood exposed to LPS; type: cell-based; conditions: 24 hours with LPS; 16α-bromoepiandrosterone at 100 ng/mL
Experimental: Anti-inflammation activity in human cells in vitro. […] The amount of γ-interferon was measured in the growth medium when the cells had been incubated in the presence of LPS for 24 hours.

[4] = tested on: human T lymphocytes (PBMC); experiment: human mixed lymphocyte reaction (MLR); type: cell-based; conditions: 300 nM or 30 nM
Text: Human mixed lymphocyte reaction (MLR). The capacity of 3β,16α-dihydroxy-17-oxoandrostane, 3β,17β-dihydroxy-16-oxoandrostane, 17α-ethynylandrost-5-ene-3β,7β,17β-triol, and 17β-aminoandrost-5-ene-3β-ol to affect antigen specific stimulation in which human T lymphocytes respond to a specific foreign antigen (major histocompatibility complex).
Blood samples were obtained from 3 (2 males, […]) fasting, healthy human volunteers of 23-31 years old. […] The subjects were bled between 9 and 10 AM to limit possible fluctuations in the circulating levels of hormones or cytokines that could have influenced the in vitro responses of their lymphocytes. Peripheral blood mononuclear cells (PBMC) were isolated by centrifugation on Ficoll-Hypaque (density 1.077, Biochrom AG, Berlin, Germany) gradients and resuspended in culture medium (RPMI 1640 supplemented with 2 mM L-glutamine, penicillin (100 U/mL) and streptomycin ([…]) (Invitrogen s.rl., Milan, Italy). Autologous (responder) inactivated plasma was used at 10%. Five hundred thousand responder PBMC (PBMCr) and 500,000 allogeneic irradiated (30 Gy) stimulator PBMC (PBMCs) were mixed at a ratio of 1:1 in 200 μL medium and cultured for 6 days in flat bottom 96 well plates (Nunc, Roskilde, Denmark) at a concentration of 300 nM or 30 nM for each of the 4 compounds. The compounds were dissolved in ethanol and then diluted to the desired concentration with culture medium leading to a final solution containing 0.01% of ethanol. This vehicle was used as control. Controls also included PBMCr and PBMCs cultured separately. During the last 8 hours of the culture period the PBMC were pulsed with […] [^3H] thymidine (Amersham, Milan, Italy). The cells were then harvested and radioactivity incorporation measured with a beta cell counter. The mean cpm of quadruplicate wells was calculated. Proliferation of T cells was expressed as a stimulation index: SI=cpm (PMBCs xPBMCr)/cpm (PBMCr)+cpm (PBMCs). Statistical analysis was performed using the Student's t test. The cpm obtained from quadruplicate of each test compound were compared to proliferative responses obtained in control PBMCr and PBMCs cultured in the presence of the vehicle. Differences were considered significant at p<0.05.

[5] = metabolic stability in liver microsomes, species not stated; conditions: compared with androst-5-ene-3β,17β-diol
Experimental: The protocol was performed as follows. […] (2) Set up samples as follows. […] (4) The internal standard/acetonitrile solution.

[6] = tested on: bone loss after thermal injury; experiment: bone loss in thermally-injured mice; type: in vivo; conditions: 20% total body surface area thermal injury
Text: In bone loss conditions, 5-androstene-3β,7β,17β-triol affected the principal bone structures, i.e., cortical and trabecular layers and the growth plate. […] We observed partial protection against loss of bone mineral content as measured by dual X-ray absorptiometry.

[7] = tested on: NF-κB; experiment: inhibition of NF-κB activation in NF-κB-bla THP-1 cells after LPS stimulation; type: cell-based, human; conditions: Homo sapiens, THP-1; LPS stimulation; 50% of the compound's maximum inhibition; averages; read-out: IC50
Outline: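 THP-1 monocytes stably carrying an NF-κB response element–driven β-lactamase reporter, plated about 24 h before activation with LPS at 0.2 ng/mL. Reporter activity measured by FRET ratiometric detection; values are averages of usually 2-4 runs per compound.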

[8] = tested on: popliteal lymph node cells; experiment: reporter antigen popliteal lymph node (PLN) assay; type: in vivo, BALB/C mice; conditions: compound 1.0 and 0.1 mg/day; dexamethasone 5 μg/day
Text: Analysis of immune suppression. Glucocorticoid steroids such as dexamethasone or hydrocortisone are typically immune suppressive and have significant toxicities associated with their use. Immune suppression was examined in a reporter antigen popliteal lymph node assay in mice essentially as previously described (C. Goebel et al., Inflamm. Res., 45(Suppl. 2):S85-S90, 1996; R. Pieters et al., Environmental Health Perspectives 107(Suppl. 5):673-677, 1999). […] In this protocol, the vehicle was 0.1% carboxymethylcellulose, 0.9% saline, 2% tween 80 and 0.05% phenol, which contained 17α-ethynylandrost-5-ene-3β,7β,17β-triol in suspension in drug treated animals. Assessment of activity included (1) measuring suppression of numbers of total lymphocytes, antigen specific IgM, IgG1 and IgG2a antibody secreting cells (ASC) (ELISPOT assay) in popliteal lymph node cells; (2) analysis of cell surface marker (CD4, CD8, CD19, F480, CD80, CD86) expression by flow cytometry of living cells in suspension; and (3) IL-4, TNFα and IFNγ production by lymphocytes in vitro (ELISA).
Groups (n=5 per group) of specific pathogen free BALB/C mice were used. The Positive control group was treated with vehicle (oral gavage) and 5 μg/day dexamethasone by subcutaneous injection to induce immune suppression. Vehicle control animals (negative control) were treated with vehicle alone (oral gavage). One group of animals was treated with 17α-ethynylandrost-5-ene-3β,7β,17β-triol at 0.1 mg/day by oral gavage. Another group was treated with 1 mg/day of 17α-ethynylandrost-5-ene-3β,7β,17β-triol was administered to the animals oral gavage. The results were analyzed by two-tailed Student's t-test with equal variance. The animals were injected in the right hind footpad with 50 μL of freshly prepared sensitizing dose of TNP-OVA. […] Single cell suspensions were prepared, resuspended in 1 mL PBS-BSA (1%) and counted. Cell numbers, IL-4, IL-5 and IFNγ were measured.

[9] = tested on: MG-63 cells; experiment: pilot studies of dexamethasone in MG-63 cells; type: cell-based; conditions: Homo sapiens
Text: The capacity of compounds including 5-androstene-3β,7β,17β-triol, 17α-ethynyl-5-androstene-3β,7β,17β-triol and 4-estrene-3α,17β-diol to reverse adverse effects of glucocorticoids in bone growth was shown in the human MG-63 osteosarcoma cell line. MG-63 cells are osteoblasts, which are cells that mediate bone growth. Theis cell line has been used extensively to study bone biology and to characterize the biological activity of compounds for treatment of bone loss conditions (e.g., B. D. Boyan et al., J. Biol. Chem., 264(20):11879-11886, 1989; L. C. Hofbauer et al., Endocrinology, 140(10):4382-4389, 1999). Adverse toxicities associated with elevated glucocorticoid levels include a decrease in the production of IL-6 and IL-8 by osteoblasts, including the MG-63 cell line, and an increase in the expression of the 11β-hydroxysteroid dehydrogenase type 1 enzyme (11β-HSD). Increased 11β-hydroxysteroid dehydrogenase type 1 enzyme results in increased levels of endogenous glucocorticoid activity by converting endogenous cortisone to the active cortisol, which inhibits bone growth. The 11β-HSD enzyme is expressed in liver, adipose tissue, brain and bone tissues. Cortisol generated by 11β-HSD-1 contributes to osteoporosis, insulin resistance, type 2 diabetes, dyslipidemia, obesity, central nervous system disorders such as stroke, neuron death, depression and Parkinson Disease. […]

C[C@]12CC[C@H](O)CC1CC[C@@H]1[C@@H]2CC[C@]2(C)C(=O)[C@H](O)C[C@@H]12 (stereo partly drawn) [3β,16α-dihydroxy-17-oxoandrostane]
number of neutrophils relative to negative control group (set at 100%) ([1]; 0.001 mg s.c. 24 h and 1 h before carrageenan-λ): 97% | number of neutrophils relative to negative control group (set at 100%) ([1]; 0.01 mg s.c. 24 h and 1 h before carrageenan-λ): 73% | volume of pleural exudate ([1]; 0.1 mg dose s.c.): significantly reduced | number of neutrophils relative to negative control group (set at 100%) ([1]; 0.1 mg s.c. 24 h and 1 h before carrageenan-λ): 73% | potency compared with polyclonal anti-TNF-α antibody control ([1]; s.c.): less potent | survival 72 hours after LPS [2]: 50% | production of γ-interferon [3]: Reduced production | immune suppression (inhibition of the MLR) [4]: not appreciably immune suppressive | rate of metabolism by microsomes [5]: metabolized by microsomes at a rate similar to the androst-5-ene-3β,17β-diol reference compound

C[C@]12CC[C@H]3[C@@H]([C@@H](O)C=C4C[C@@H](O)CC[C@@]43C)[C@@H]1CC[C@@H]2O [androst-5-ene-3β,7β,17β-triol]
femur ash weight vs vehicle-treated burned mice [6]: significantly (p<0.01) greater | loss of cortical and trabecular bone mass and suppression of chondrocyte proliferation [6]: significantly (p<0.01) prevented

C[C@@H]1C[C@H]2[C@@H]3CCC4=CC(=O)C=C[C@]4(C)[C@@]3(F)[C@@H](O)C[C@]2(C)[C@@]1(O)C(=O)CO [dexamethasone, reference compound]
IC50 [7]: 0.47 nM | IFNγ, IL-4 and IL-5 levels compared to vehicle control [8]: reduced | IC50 ([9]; read-out: IC50 for inhibition of IL-6 from MG-63 cells): 10 nM | IC50 ([9]; read-out: IC50 for inhibition of growth of MG-63 cells): 15.3 nM

Reference: US20080221074A1, “Drug Screen and Treatment Method” (priority 2006, published 2008)
